Results from patent US20260183306A1, “Methods for Treating Respiratory Diseases Characterized by Mucus Hypersecretion” (The Board of Trustees of the Leland Stanford Junior …, priority 2022, published 2026).
“Also recorded” adds a separate entry of the source.

How the values were obtained:
[1] = test system: HNEC cultures treated with IL-13; test: IL-13 induced chronic inflammation / mucous metaplasia model in ALI HNEC cultures; assay type: cell-based, human; settings: for percentage of MCCs after IL-13 remodeling / percentage of mucin positive secretory (mucous) cells after IL-13 remodeling: IL-13 ALI+7 to 14, then DAFT (1 um) or semagacestat (125 nm) ALI+14 to 21
Procedure: Administration of IL-13 to ALI cultures induces goblet cell hyperplasia and is a useful model of chronic inflammation. ALI HNEC cultures were prepared as described in Vladar et al. ALI cultures were treated with and without administration of I1-13 on days 7−14. DAFT (1 um), semagacestat (125 nm) or vehicle control were administered on days 14-21. PFA-fixed cultures were stained for Muc5AC (red; mucin producing secretory cells), Acetylated tubulin (green; MCCs) and E-Cadherin (blue to reveal cell boundaries).
HNEC cultures from a CF patient were treated with IL-13 from ALI+7 to 14 to induce inflammation. […] IL-13 treatment increases the percentage of mucin positive secretory cells and decreases the percentage of MCCs.
To test whether GSI treatment has the ability to restore multiciliated cells in remodeled epithelia with fewer than normal multiciliated cells, healthy donor HNECs were treated with the IL-13 pro-inflammatory cytokine to model mucous metaplasia (7,24). IL-13 treatment from ALI+7 to 14d of culture led to the formation of excess mucus secretory cells, identified by MUCSAC labeling, at the expense of multiciliated cells (FIG. 38A). At ALI+14d, the cytokine was withdrawn, and cultures were treated for one week with LY450139, DAPT or DMSO control.
Primary human nasal epithelial cell (HNEC) cultures. […] Primary air-liquid interface (ALI) culture of nasal epithelial cells from passage 0 (P0) or P1 basal stem cells was carried out as previously described (24,30). Briefly, cells are removed from cytobrushes with gentle enzymatic digestion. P0 HNEC cultures are initiated by seeding freshly isolated cells onto Collagen I coated Transwell filters. P1 HNEC cultures are initiated from basal cells that were first expanded on Collagen I coated plastic dishes in proliferation medium supplemented with Y-27632 (ROCK inhibitor, 10 μM), DMH-1 (BMP inhibitor, 1 μM), A-83-01, (TGF-β inhibitor, 1 μM), and CHIR99021 (WNT agonist, 1 μM)(42), all from Selleckchem. HNECs seeded onto Transwells are initially cultured submerged in proliferation medium until confluency, then lifted to ALI (considered as ALI+0d of culture) by supplying differentiation medium only from the bottom compartment. HNECs are considered mature at ALI+21d of culture. Healthy and CF HNECs used in the study were cultured in homemade media (24). CF HNECs used for the Ussing chamber measurements only were cultured in Pneumacult Ex+(proliferation) and Pneumacult ALI (differentiation) media (Stemcell). […] Healthy HNECs were treated with 10 ng/ml recombinant human IL-13 (RnD Systems).

[2] = test system: primary human nasal epithelial cells (HNECs); test: Multiciliated cell (MCC) formation in HNEC air-liquid interface (ALI) cultures; assay type: cell-based; settings: for multiciliated cell formation by apical versus basal application: ALI+0 to +21d from either the apical or basal surface; for multiciliated cell numbers, treatment during differentiation: differentiation only (ALI+0 to +21d) and continuous (preALI+ALI) treatments; for toxicity / disruption of epithelial structure at high concentration: micromolar doses (10 μM for LY450139); for multiciliated cell formation at the low concentration: low dose (based on IC50 for Notch inhibition); for multiciliated cell formation at the low concentration / multiciliated cell formation, treatment during proliferation only: labeled ALI+21d; for multiciliated cell formation in mature cultures: mature (ALI+30d) cultures treated one (ALI+30 to +37d) or two weeks (ALI+30 to +44d); for multiciliated cell formation, treatment during proliferation only: pre-ALI only (ALI-5 to -1d)
Procedure: Air-Liquid Interface (ALI) cultures were prepared as described in Vladar E K, Nayak J V, Milla C E, Axelrod J D. Airway epithelial homeostasis and planar cell polarity signaling depend on multiciliated cell differentiation. JCI Insight. 2016; 1(13); e88027. Human nasal epithelial cells (HNECs) were generated from human sinonasal epithelial brushings or from tissue obtained from patients undergoing endoscopic sinus surgery at Stanford Hospital and cultured as described in Vladar et al.
Cultures were treated with varying doses of semagacestat. DAFT (Abcam) was used ([…]) as a positive cone ml for GSI activity. Cultures were labeled at ALI+21 d with anti-acetylated α-tubulin (green) and ECAD (red) antibodies to mark cilia and epithelial junctions. […] The ratio was defined as MCC number/total luminal cells. Counting was done on one representative image from 5 culture replicates from a single donor.
Primary human airway epithelial cells were treated with DAPT and LY45139: i) during proliferation only (ALI-5 to -Id), ii) during differentiation only (ALI+0 to +21d) or iii) continuously during the entire culture duration, followed by labeling at ALI+21d with anti-acetylated α-Tubulin (green) and ECAD (red) antibodies.
Mature (ALI+30d) primary human airway epithelial cells were treated with DAFT and semagacestat for one (ALI+30 to +37d) or two weeks (ALI+30 to +44d), then labeled with anti-acetylated α-Tubulin (green) and ECAD (red) antibodies.
Primary human airway epithelial cells were treated with DAFT and LY45139 during differentiation only (ALI+0 to +21d) from either the apical or basal surface, then labeled at ALI+21d with anti-acetylated α-Tubulin (green) and ECAD (red) antibodies. […] Apical treatment eliminates the air-liquid interface, which results in the poor epithelial structure and multiciliated cell differentiation in the untreated cultures, which is partially rescued by GSI treatment.
While this effect may be beneficial as a therapeutic, DAPT is not suitable for human use. It was sought to identify GSIs for potential therapeutic application among small molecules previously used in clinical trials that were developed to have acceptable drug-like properties. […] Healthy human nasal epithelial cell (HNEC) primary cultures were grown at air-liquid interface (ALI) in homemade culture medium to support the consistent differentiation of multiciliated cells as approximately 45-55% of the luminal cells, similar to the in vivo airways (24) (FIG. 35A, 40A). The use of homemade culture medium is important, as cultures grown in commercially available Pneumacult medium often contain 85-95% multiciliated cells at the luminal surface (FIG. S4A). HNECs were treated with a low and high dose (based on IC50 for Notch inhibition, Selleckchem) of each compound during the entire 21 days of ALI differentiation (ALI+0 to 21d). The fraction of mature multiciliated cells was quantitated using wholemount ac. α-Tubulin antibody (marks ciliary axonemes) labeling. […] DMSO control treatment had no effect on multiciliated cell number (FIG. 40A).
HNEC primary culture comprises an initial proliferative phase when basal stem cells establish the epithelial layer under submerged culture conditions (preALI), followed by differentiation induced, in part, by lifting to ALI (30). Thus, HNECs can be used to test GSI response in both regenerative and homeostatic settings. Notch signaling between luminal cells controls epithelial cell fate, but it is also active in basal cells and regulates their differentiation and survival (14,18,31). Thus, it was asked if the GSIs LY450139 or DAFT during the proliferative preALI phase only or during the entire culture duration (proliferative+differentiation; preALI+ALI) can induce multiciliated cell formation and if GSI treatment during stem cell proliferation has detrimental effects. PreALI, GSIs was added to both the apical and basal media, and during ALI, cultures were only treated basally. […]

[3] = ALI+0 to +21d, listed as LY45139
[4] = ALI+0 to +21d, listed as LY450139
[5] = treated during differentiation ALI+0 to +21d

Structure (SMILES): CC(C)[C@H](O)C(=O)N[C@@H](C)C(=O)N[C@@H]1C(=O)N(C)CCc2ccccc21 [semagacestat, (2S)-2-hydroxy-3-methyl-N-[(1 S)-1-methyl-2-oxo-2-[[(1 S)-2,3,4,5-tetrahydro-3-methyl-2-oxo-1H-3-benzazepin-1-yl]amino]ethyl]-butamide]
- percentage of MCCs after IL-13 remodeling [1]: increasing the percentage of MCCs
- percentage of mucin positive secretory (mucous) cells after IL-13 remodeling [1]: decreasing the percentage of mucin positive secretory cells
- percentage of MCCs after IL-13 remodeling ([1]; listed as LY450139): significantly increased their proportion of multiciliated cell numbers; also recorded: induced multiciliated cell formation to levels comparable to healthy epithelia
- percentage of mucin positive secretory (mucous) cells after IL-13 remodeling ([1]; listed as LY450139): reduction in the proportion of mucous cells
- percentage of MCCs in controls without IL-13 ([1]; no IL-13, DAFT (1 um) or semagacestat (125 nm) days 14-21): increase the percentage off MCCs in controls; also recorded: increase the percentage of MCCs in controls
- proportion of multiciliated cells ([2]; 10 μM, ALI+0 to +21d): significant decrease
- proportion of multiciliated cells ([2]; 15.625 to 500 nM, ALI+0 to +21d): significant increase
- multiciliated cell formation by apical versus basal application ([2]; listed as LY45139): induces ciliated cell formation via both apical and basal application
- multiciliated cell formation by apical versus basal application ([2]; listed as LY450139): just as efficacious as basal treatment; also recorded: induces multiciliated cell formation via both apical and basal application
- effect on Notch signaling and differentiation towards MCCs ([2]; administered in the nanomolar range to human nasal epithelial cells): effective in blocking Notch signaling, driving differentiation towards MCCs
- number of multiciliated cells, apical only treatment of submerged cultures ([2]; apical only, submerged cultures, vs untreated submerged cells): approximately double the number of multiciliated cells
- multiciliated cell numbers, treatment during differentiation ([2]; listed as LY45139): increased MCC cell numbers
- multiciliated cell numbers, treatment during differentiation ([2]; listed as LY450139): significant increase in the proportion of multiciliated cells; also recorded: increased multiciliated cell numbers
- toxicity / disruption of epithelial structure at high concentration ([2]; ALI+0 to +21d): Toxicity is observed at micromolar doses
- toxicity / disruption of epithelial structure at high concentration [2, 3]: disrupted epithelial structure
- toxicity / disruption of epithelial structure at high concentration [2, 4]: disrupted the epithelial junctions; also recorded: disrupted epithelial structure
- multiciliated cell formation at the low concentration [2, 3]: induced multiciliated cell formation
- multiciliated cell formation at the low concentration [2, 4]: able to induce the formation of extra multiciliated cells; also recorded: induced multiciliated cell formation
- dose dependence of multiciliated cell numbers ([2]; lower (nM) concentrations, ALI+0 to +21d, listed as LY450139): increases the proportion of multiciliated cells in a dose dependent manner; also recorded: dose dependent increase in multiciliated cell numbers
- multiciliated cell formation in mature cultures [2]: induces the formation of additional multiciliated cells in mature cultures
- multiciliated cell formation in mature cultures ([2]; listed as LY450139): robust induction of multiciliated cell formation; also recorded: able to drive multiciliated cell formation in differentiating as well as mature, homeostatic airway epithelial cultures; also recorded: induces the formation of additional multiciliated cells in mature cultures
- multiciliated cell formation, treatment during proliferation only ([2]; listed as LY45139): had no effect on differentiation
- multiciliated cell formation, treatment during proliferation only ([2]; listed as LY450139): not sufficient to induce extra multiciliated cell formation; also recorded: no observable effect on subsequent differentiation; also recorded: no detrimental effect on multiciliated cells or overall epithelial structure
- ratio MCC number/total luminal cells ([2]; semagacestat 500 nM to 31.25 nM, labeled at ALI+21 d, vs untreated, p<0.01 by ANOVA): significant increases
- concentration at which the percentage of MCCs reaches its maximum / begins to plateau [2, 5]: around 125 nM
- lowest concentration able to effectively increase the proportion of multiciliated cells [2, 5]: 31.25 nM
